We go through 6 compounds from US20140294724A1, “COMPOSITIONS AND METHODS FOR TREATMENT OF PROTEINOPATHIES” (Intellect Neurosciences, Inc., priority 2011, published 2014).

In one data set the target is T1, β-Amyloid 1-40 peptide (Homo sapiens, UniProt P05067).
T1 construct: 60 μM β-Amyloid 1-40
In words: β-Amyloid aggregation, Thioflavin T fluorescence assay. It is filed as biochemical. Conditions: 24 hours; for reduction of fibrillogenesis: with ApoE4 added (about 1/80 of test compound), equimolar with Aβ; for potency in reducing fibrillogenesis compared with melatonin: with ApoE4 added. As for the experimental part: In a NUNC PP 96-well plate 100 μL of MilliQ dH2O was added to the outer wells surrounding the test wells in order to minimize evaporation. Samples in a final volume of 100 μl/well were added to the 96-well plate as follows:
Aggregation was measured at 0 and 24 hours incubation time.
5 μL was obtained from each test sample after incubation and added to 2 mL of a glycine/NaOH buffer (50 mM, pH 9.2) containing 3 μM thioflavin T. Fluorescence intensities were measured at an excitation wavelength of 450 nm and an emission wavelength of 485 nm in a Envision fluorescence spectrophotometer. A time scan of fluorescence intensity was performed, and three measurements were taken after the decay reached a plateau at 200, 220, and 240 s and averaged after subtracting the background fluorescence of 3 μM thioflavin T in the blank buffers. […] All measurements were taken in triplicate. Siliconized polypropylene microcentrifuge tubes (USA Scientific) were used for these experiments. Solutions of recombinant apolipoproteins were immediately lyophilized and, prior to being used, resuspended in 0.1 M tris-phosphate-HCl buffer (pH 7.4). […] Solutions of Aβ were prepared by dissolving 2.2 mg of the peptide in 1 mL of 50 mM buffer at pH 9.6. Aliquots (50 uL) of this solution were lyophilized and stored at −80° C. until they were needed for the experiments. Working stock solutions of the peptide (concentration of 500 uM) were prepared in HPLC-grade water immediately prior to the experiments. The absence of aggregates and amyloid fibrils in these solutions was verified by spectrofluorometry.

Data set [1] in a line: Oxygen Radical Absorbance Capacity assay (ORAC antioxidant test). It is filed as biochemical. Particulars: for Calculated Trolox® equivalents: ratio of slope of sample to slope of Trolox® (Eq. 3). An excerpt: Sodium Fluorescein was purchased from Invitrogen. 2,2′-Azobis(2-amidinopropane) dihydrochloride (AAPH), 6-hydroxy-2,5,7,8-tetramethylchroman-2-carboxylic acid (Trolox®), gallic acid, Epigallocatechin gallate (EGCG), epigallocatechin (EGC), and quercetin dihydrate were purchased from Sigma-Aldrich (St. Louis, Mo.). Black-sided, special optics clear bottom plates (part #3615) were obtained from Corning.
The ORAC assay depends on the free radical damage to a fluorescent probe, such as fluorescein, to result in a downward change of fluorescent intensity. The assumption is that the degree of change is indicative of the amount of radical damage. […] This inhibition is observed as a preservation of the fluorescent signal. Reactions containing antioxidants and or blanks are run in parallel using equivalent amounts of a molecule capable of generating super reactive oxygen species (ROS) and fluorescent probe. Because the reaction is driven to completion, one can quantitate the protection by calculating the area under the curve (AUC) from the experimental sample. After subtracting the AUC from the blank, the resultant difference would be the protection conferred by the antioxidant compound. […] The ORAC assay is unique in that because the assay is driven to completion the AUC calculation combines both the inhibition time as well inhibition percentage of free radical damage by the antioxidant into a single quantity.
Reactive oxygen species generators were added to parallel reactions containing equal amounts of a fluorescent probe. Reactions contained either a buffer blank or antioxidant samples and standards. The antioxidant capacity of a sample is the net difference between the area under the curve (AUC) of the sample and that of the blank. The exterior wells were not used for experimental determinations. 200 μL of MilliQ dH2O was added to the outer wells surrounding the test wells in order to minimize evaporation. 150 μL sodium fluorescein was added to experimental wells. […] The plate was allowed to equilibrate by incubating for 30 min in the Victor2^V Microplate Reader (Perkin Elmer, Waltham, Mass.) at 37° C. Reactions were initiated by the addition 25 μL of AAPH solution (free radical initiator) for a final reaction volume of 200 μl. The fluorescence was monitored kinetically in Victor2V with temperature control reader for at least 80 min with data taken every minute. Fast orbital shaking (0.5 mm) for 10 sec was performed prior to each reading. The temperature was set to 37° C. at all time and the reagents were treated as light sensitive.
AUC=(R1/R1)+(R2/R1)+(R3/R1)+ . . . +(Rn/R1) (Eq. 1)
Where R1 is the fluorescence reading at the initiation of the reaction and Rn is the last measurement.
Net AUC=AUC(sample)−AUC(blank) (Eq. 2)
The resultant standard curve was then interpolated to determine of antioxidant capacity of the samples and reported as Trolox® equivalence. To determine Trolox® equivalents of each sample range the ratio of the slope (m) of the linear regression analysis of the sample to the slope of the linear regression of Trolox® was used:
TE(range of concentrations)=m(sample)/m(Trolox®) (Eq. 3)

Another data set deals with patients with AD. Conditions: 250 mg dose, cited from earlier work.
Data set [2] has as its system moderate-stage AD patients. Conditions: 2000 IU per day; cited from earlier work.

SMILES strings stand for the structures. Values joined by “and” are separate entries in the source; they are usually repeats but may differ in a detail not shown here. Equal entries are not always repeated.

T1 sequence (P05067 672-711): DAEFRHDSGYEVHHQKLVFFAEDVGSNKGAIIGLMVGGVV

Compound `COc1ccc2[nH]cc(CCNC(=O)CCCCCN3C(=O)CC(SC[C@H](N)C(=O)O)C3=O)c2c1` (stereo partly drawn) [Example 1, (2R)-2-amino-3-((1-(6-((2-(5-methoxy-1H-indol-3-yl)ethyl)amino)-6-oxohexyl)-2,5-dioxopyrrolidin-3-yl)thio)propanoic acid] gave a reduction of fibrillogenesis on β-Amyloid 1-40 peptide of 75%. In addition, the “potency in reducing fibrillogenesis compared with melatonin” value at β-Amyloid 1-40 peptide is listed as “about 2 fold”. Further, the AUC was 14.99 in data set [1] (Concentration 0.390625); 20.01 in data set [1] (Concentration 0.78125); 29.51 in data set [1] (Concentration 1.5625); 46.55 in data set [1] (Concentration 3.125); 74.68 in data set [1] (Concentration 6.25); 93.56 in data set [1] (Concentration 12.5). Besides, the AUC in data set [1] (Concentration 25) came out at 93.03; in data set [1] (Concentration 50), 88.39; in data set [1] (Concentration 100), 82.12. Further, the “Net AUC” value in data set [1] (Concentration 0.390625) is on record as 8.56; in data set [1] (Concentration 0.78125) it was 13.58; in data set [1] (Concentration 1.5625), 23.08; in data set [1] (Concentration 3.125), 40.12; in data set [1] (Concentration 6.25), 68.25; in data set [1] (Concentration 12.5), 87.13. Moreover, the “Net AUC” value in data set [1] (Concentration 25) was 86.60; in data set [1] (Concentration 50), 81.96; in data set [1] (Concentration 100), 75.69. Moreover, the “Calculated Trolox® equivalents” value in data set [1] is listed as 2.02 Trolox® equivalents.

In turn, `COc1ccc2[nH]cc(CCNC(=O)CCOCCOCCOCCOCCNC(=O)CCN3C(=O)CC(SC[C@H](N)C(=O)O)C3=O)c2c1` (stereo partly drawn) [Example 2, (2R)-2-amino-3-((1-(1-(5-methoxy-1H-indol-3-yl)-4,20-dioxo-7,10,13,16-tetraoxa-3,19-diazadocosan-22-yl)-2,5-dioxopyrrolidin-3-yl)thio)propanoic acid] gave a reduction of fibrillogenesis on β-Amyloid 1-40 peptide of 75%. Besides, at β-Amyloid 1-40 peptide, the “potency in reducing fibrillogenesis compared with melatonin” value was “about 2 fold”. Further, the AUC in data set [1] (Concentration 0.390625) was 13.97; in data set [1] (Concentration 0.78125), 20.49; in data set [1] (Concentration 1.5625), 28.06; in data set [1] (Concentration 3.125), 45.62; in data set [1] (Concentration 6.25), 71.79; in data set [1] (Concentration 12.5), 94.48. For the same compound, the results for the AUC in data set [1] (Concentration 25), in data set [1] (Concentration 50) and in data set [1] (Concentration 100) were 97.13, 97.12 and 96.55, respectively. Moreover, the “Net AUC” value in data set [1] (Concentration 0.390625) is on record as 7.75; in data set [1] (Concentration 0.78125), 14.27; in data set [1] (Concentration 1.5625), 21.84; in data set [1] (Concentration 3.125), 39.39; in data set [1] (Concentration 6.25), 65.56; in data set [1] (Concentration 12.5) it was 88.26. For the same compound, the results for the “Net AUC” value in data set [1] (Concentration 25), in data set [1] (Concentration 50) and in data set [1] (Concentration 100) were 90.91, 90.90 and 90.33, respectively. In addition, the “Calculated Trolox® equivalents” value in data set [1] is listed as 1.97 Trolox® equivalents.

Regarding `COc1ccc2[nH]cc(CCNC(C)=O)c2c1` [Melatonin, N-[2-(5-Methoxyindol-3-yl)ethyl]acetamide], the AUC is on record as 14.74 in data set [1] (Concentration 0.390625); 20.89 in data set [1] (Concentration 0.78125); 28.74 in data set [1] (Concentration 1.5625); 42.59 in data set [1] (Concentration 3.125); 66.10 in data set [1] (Concentration 6.25); 88.65 in data set [1] (Concentration 12.5). For the same compound, the AUC in data set [1] (Concentration 25) is 93.12; in data set [1] (Concentration 50), 94.75; in data set [1] (Concentration 100), 91.48. For the same compound, the “Net AUC” value in data set [1] (Concentration 0.390625) amounted to 8.09; in data set [1] (Concentration 0.78125), 14.24; in data set [1] (Concentration 1.5625) it was 22.09; in data set [1] (Concentration 3.125), 35.94; in data set [1] (Concentration 6.25), 59.45; in data set [1] (Concentration 12.5), 82.00. In addition, the “Net AUC” value amounted to 86.47 in data set [1] (Concentration 25), 88.10 in data set [1] (Concentration 50) and 84.82 in data set [1] (Concentration 100).

For `CN(C)Cc1ccc2c(Cl)cc(Cl)c(O)c2n1` [PBT2], the tolerability result in the data set on patients with AD (patients with AD) is “well-tolerated”. In the data set with patients with AD (within 12 weeks of treatment), the “cerebrospinal fluid (CSF) levels of amyloid-beta42” value was “significantly lowered” and the “executive function on a Neuro-psychological Test Battery (NTB)” value is “significantly improved”.

As for `Cc1c(C)c2c(c(C)c1O)CCC(C)(C(=O)O)O2` (stereo not shown) [Trolox, 6-hydroxy-2,5,7,8-tetramethylchroman-2-carboxylic acid], in data set [1] (6.25 μM, lowest concentration tested, versus buffer only control), the “protection of fluorescein against oxidation” value was “only slight protection”. Besides, in data set [1] (100 μM, highest concentration tested), the “duration of virtually full protection of fluorescein against oxidation” value is listed as “approximately 20 minutes”. Also, the AUC in data set [1] (Concentration 0.390625) was 11.95 and 13.53 and 11.49; in data set [1] (Concentration 0.78125), 14.90 and 15.01 and 14.62; in data set [1] (Concentration 1.5625), 20.00 and 19.69 and 19.52; in data set [1] (Concentration 3.125) it was 28.96 and 29.49 and 28.51; in data set [1] (Concentration 6.25), 44.91 and 44.55 and 43.41; in data set [1] (Concentration 12.5), 77.61 and 74.88 and 73.04. Further, the AUC in data set [1] (Concentration 25) was 96.34 and 100.28 and 98.61; in data set [1] (Concentration 50), 98.05 and 97.48 and 100.67; in data set [1] (Concentration 100), 95.82 and 99.05 and 97.58. The “Net AUC” value in data set [1] (Concentration 0.390625) was 5.30 and 7.10 and 5.27; in data set [1] (Concentration 0.78125), 8.24 and 8.58 and 8.39; in data set [1] (Concentration 1.5625) it was 13.34 and 13.26 and 13.30; in data set [1] (Concentration 3.125) it was 22.31 and 23.06 and 22.29; in data set [1] (Concentration 6.25), 38.25 and 38.12 and 37.18; in data set [1] (Concentration 12.5), 70.96 and 68.45 and 66.81. In addition, the “Net AUC” value in data set [1] (Concentration 25) was 89.68 and 93.85 and 92.39; in data set [1] (Concentration 50) it was 91.40 and 91.05 and 94.45; in data set [1] (Concentration 100), 89.17 and 92.62 and 91.35.

As to `Cc1c(C)c2c(c(C)c1O)CCC(C)(CCCC(C)CCCC(C)CCCC(C)C)O2` (stereo not drawn) [Vitamin E, α-tocopherol], in data set [2], the “delay in reaching the end points of institutionalization, loss of major activities of daily living, or death” value is “small but significant delay” and the “loss of cognitive performance” value was “did not delay”.
